Patent publication US7074789B2, “Kinase inhibitors” (Amgen Inc., priority 1999, dated 2006)

Assays:
Type in all cases: biochemical
Lck = biological target: T1, Lck (Homo sapiens, UniProt P06239); test: Kinase inhibition assay (33P transfer), Lck; conditions: Table 3; read-out: Lck-1
T1 construct: Kinases are expressed as either kinase domains or full length constructs; made in house
Procedure, shortened: (§1)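 Recombinant kinase-domain or full-length fusion proteins (GST or His tag) served as enzyme. Substrate poly(Glu,Tyr) 4:1 or poly(Arg,Ser) 3:1 was bound to the plate; transferred 33P was read by liquid scintillation following acid washing.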

Src = biological target: T2, Src (Homo sapiens, UniProt P12931); test: Kinase inhibition assay (33P transfer), Src; conditions: Table 6, Src-1 kinase inhibition class
T2 construct: Kinases are expressed as either kinase domains or full length constructs; made in house
T2 sequence (P12931 whole entry, species assumed, the tested form may be a part): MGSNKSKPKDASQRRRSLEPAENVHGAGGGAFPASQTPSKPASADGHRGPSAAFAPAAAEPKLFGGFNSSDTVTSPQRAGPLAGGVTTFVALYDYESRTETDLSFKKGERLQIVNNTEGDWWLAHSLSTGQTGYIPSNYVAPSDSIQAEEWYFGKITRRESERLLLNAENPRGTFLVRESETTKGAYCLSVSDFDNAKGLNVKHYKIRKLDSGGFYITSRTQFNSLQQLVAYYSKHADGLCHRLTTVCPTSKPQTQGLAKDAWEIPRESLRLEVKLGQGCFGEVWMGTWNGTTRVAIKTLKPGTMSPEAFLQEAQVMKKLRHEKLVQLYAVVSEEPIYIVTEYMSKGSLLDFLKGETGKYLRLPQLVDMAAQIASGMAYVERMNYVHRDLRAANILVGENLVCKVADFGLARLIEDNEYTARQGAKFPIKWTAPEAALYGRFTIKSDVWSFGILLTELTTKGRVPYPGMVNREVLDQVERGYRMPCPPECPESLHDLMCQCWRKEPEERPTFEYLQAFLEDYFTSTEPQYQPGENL
Procedure, shortened: (§2)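 GST/His-fusion kinases, E. coli or High Five expressed, affinity purified; 33P-ATP, plate-coated poly(Glu,Tyr) 4:1 or poly(Arg,Ser) 3:1; 0.5% H3PO4 wash, scintillant, LSC.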

Zap-70 = biological target: T3, Zap-70 (Homo sapiens, UniProt P43403); test: Kinase inhibition assay (33P transfer), Zap-70; conditions: Table 3; read-out: Zap-1
T3 construct: Kinases are expressed as either kinase domains or full length constructs; made in house
T3 sequence (P43403 1-619): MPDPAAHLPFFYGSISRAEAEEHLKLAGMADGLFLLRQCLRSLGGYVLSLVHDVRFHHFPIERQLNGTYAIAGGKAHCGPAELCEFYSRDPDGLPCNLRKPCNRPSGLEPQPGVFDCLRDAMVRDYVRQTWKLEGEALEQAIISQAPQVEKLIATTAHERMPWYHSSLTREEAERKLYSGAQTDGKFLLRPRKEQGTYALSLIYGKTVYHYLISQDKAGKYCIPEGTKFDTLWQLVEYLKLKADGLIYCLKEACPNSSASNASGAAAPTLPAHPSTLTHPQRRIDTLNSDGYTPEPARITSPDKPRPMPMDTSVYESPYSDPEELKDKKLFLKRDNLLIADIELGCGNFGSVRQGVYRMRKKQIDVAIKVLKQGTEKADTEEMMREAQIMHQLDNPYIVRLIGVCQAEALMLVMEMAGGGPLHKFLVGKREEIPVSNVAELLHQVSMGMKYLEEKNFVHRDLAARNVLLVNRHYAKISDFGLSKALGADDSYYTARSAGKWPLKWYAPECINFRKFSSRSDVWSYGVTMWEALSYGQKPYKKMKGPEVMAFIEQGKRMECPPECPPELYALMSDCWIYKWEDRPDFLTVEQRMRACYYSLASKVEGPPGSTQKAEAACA
Procedure, shortened: as §1

EGFR = biological target: T4, EGFR (Homo sapiens, UniProt P00533); test: Kinase inhibition assay (33P transfer), EGFR; conditions: Table 2, kinase inhibition class; read-out: EGFR-1
T4 construct: Kinases are expressed as either kinase domains or full length constructs; made in house
Procedure, shortened: as §2

AKT = biological target: T5, AKT (Homo sapiens, UniProt Q9Y243); test: Kinase inhibition assay (33P transfer), AKT; conditions: Table 2, kinase inhibition class; read-out: AKT3-1
T5 construct: Kinases are expressed as either kinase domains or full length constructs; made in house
T5 sequence (Q9Y243 whole entry, the tested form may be a part): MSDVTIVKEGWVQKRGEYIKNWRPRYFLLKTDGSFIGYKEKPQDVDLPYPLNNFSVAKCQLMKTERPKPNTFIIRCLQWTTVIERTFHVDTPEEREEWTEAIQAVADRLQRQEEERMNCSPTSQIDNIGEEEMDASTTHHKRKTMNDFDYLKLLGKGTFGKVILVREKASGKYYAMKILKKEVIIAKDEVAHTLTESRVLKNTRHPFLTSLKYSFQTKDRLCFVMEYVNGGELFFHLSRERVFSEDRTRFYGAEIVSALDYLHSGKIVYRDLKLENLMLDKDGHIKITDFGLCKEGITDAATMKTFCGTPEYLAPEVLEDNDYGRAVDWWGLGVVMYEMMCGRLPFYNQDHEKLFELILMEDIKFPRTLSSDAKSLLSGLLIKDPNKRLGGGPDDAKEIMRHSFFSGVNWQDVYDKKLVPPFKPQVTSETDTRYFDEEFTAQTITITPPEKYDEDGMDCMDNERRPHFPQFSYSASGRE
Procedure, shortened: as §1

IGFR-1 = biological target: T6, IGFR-1 (Homo sapiens, UniProt P08069); test: Kinase inhibition assay (33P transfer), IGFR-1; conditions: Table 2, kinase inhibition class
T6 construct: Kinases are expressed as either kinase domains or full length constructs; made in house
T6 sequence (P08069 31-1367): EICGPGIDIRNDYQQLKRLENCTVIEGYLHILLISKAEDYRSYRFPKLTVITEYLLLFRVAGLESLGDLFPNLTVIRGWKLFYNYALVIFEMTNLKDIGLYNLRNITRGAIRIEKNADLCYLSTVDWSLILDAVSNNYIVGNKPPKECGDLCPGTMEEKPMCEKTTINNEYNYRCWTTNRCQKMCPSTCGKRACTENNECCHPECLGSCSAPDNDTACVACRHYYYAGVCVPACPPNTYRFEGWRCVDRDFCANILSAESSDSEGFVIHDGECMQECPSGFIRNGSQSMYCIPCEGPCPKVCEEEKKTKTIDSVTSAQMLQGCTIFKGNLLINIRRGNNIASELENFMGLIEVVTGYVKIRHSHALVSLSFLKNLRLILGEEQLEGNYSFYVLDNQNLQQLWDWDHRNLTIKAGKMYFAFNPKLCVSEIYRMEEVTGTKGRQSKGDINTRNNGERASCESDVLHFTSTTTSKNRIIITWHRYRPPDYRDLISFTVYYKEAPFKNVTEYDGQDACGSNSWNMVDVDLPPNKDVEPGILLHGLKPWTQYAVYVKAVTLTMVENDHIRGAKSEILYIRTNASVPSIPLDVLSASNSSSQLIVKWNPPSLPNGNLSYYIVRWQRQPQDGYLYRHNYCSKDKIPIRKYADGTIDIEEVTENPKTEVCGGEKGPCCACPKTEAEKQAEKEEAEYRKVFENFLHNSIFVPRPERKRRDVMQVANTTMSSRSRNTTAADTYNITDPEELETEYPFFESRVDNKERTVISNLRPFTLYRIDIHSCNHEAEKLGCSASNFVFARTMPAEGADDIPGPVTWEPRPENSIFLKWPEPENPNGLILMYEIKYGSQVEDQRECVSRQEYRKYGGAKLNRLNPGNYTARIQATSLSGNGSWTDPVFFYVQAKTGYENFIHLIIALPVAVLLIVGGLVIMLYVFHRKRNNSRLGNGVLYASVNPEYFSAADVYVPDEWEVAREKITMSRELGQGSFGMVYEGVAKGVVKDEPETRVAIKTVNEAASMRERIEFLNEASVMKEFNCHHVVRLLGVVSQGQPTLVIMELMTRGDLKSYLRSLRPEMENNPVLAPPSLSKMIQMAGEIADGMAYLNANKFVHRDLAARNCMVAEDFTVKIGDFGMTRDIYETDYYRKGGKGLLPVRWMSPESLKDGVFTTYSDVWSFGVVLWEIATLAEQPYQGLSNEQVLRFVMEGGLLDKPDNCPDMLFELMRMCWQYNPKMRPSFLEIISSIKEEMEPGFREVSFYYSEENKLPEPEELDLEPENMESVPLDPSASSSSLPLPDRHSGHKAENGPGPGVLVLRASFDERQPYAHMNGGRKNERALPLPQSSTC

EPHB4 = biological target: T7, EPHB4 (Homo sapiens, UniProt P54760); test: Kinase inhibition assay (33P transfer), EPHB4; conditions: read-out: EPHB4-1
T7 construct: Kinases are expressed as either kinase domains or full length constructs; made in house
T7 sequence (P54760 16-987): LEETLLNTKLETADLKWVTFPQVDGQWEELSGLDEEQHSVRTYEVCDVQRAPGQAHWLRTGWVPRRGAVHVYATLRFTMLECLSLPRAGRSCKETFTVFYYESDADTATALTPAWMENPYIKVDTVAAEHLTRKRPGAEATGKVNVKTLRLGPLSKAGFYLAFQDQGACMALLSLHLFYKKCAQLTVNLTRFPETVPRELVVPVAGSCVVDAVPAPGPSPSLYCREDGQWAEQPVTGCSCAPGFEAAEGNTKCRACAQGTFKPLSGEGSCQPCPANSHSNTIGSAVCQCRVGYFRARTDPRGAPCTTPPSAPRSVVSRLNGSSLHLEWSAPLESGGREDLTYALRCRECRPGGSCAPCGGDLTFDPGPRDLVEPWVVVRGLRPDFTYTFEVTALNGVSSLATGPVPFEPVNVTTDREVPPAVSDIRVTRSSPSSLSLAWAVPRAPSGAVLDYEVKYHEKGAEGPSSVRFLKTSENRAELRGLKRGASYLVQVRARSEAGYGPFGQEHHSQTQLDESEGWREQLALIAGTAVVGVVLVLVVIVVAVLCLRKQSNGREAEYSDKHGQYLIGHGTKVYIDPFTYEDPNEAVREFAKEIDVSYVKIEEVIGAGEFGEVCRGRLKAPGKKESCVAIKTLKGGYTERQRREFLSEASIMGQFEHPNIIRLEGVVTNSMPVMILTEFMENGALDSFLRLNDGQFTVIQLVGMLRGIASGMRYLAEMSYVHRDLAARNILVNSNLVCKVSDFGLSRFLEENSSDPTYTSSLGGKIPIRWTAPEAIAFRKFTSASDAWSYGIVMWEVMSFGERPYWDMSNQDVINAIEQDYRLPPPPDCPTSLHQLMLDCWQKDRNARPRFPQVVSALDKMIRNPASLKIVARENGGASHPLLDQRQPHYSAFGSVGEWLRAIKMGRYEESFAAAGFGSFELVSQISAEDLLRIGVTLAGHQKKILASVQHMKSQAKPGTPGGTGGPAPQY

ErbB4 = biological target: T8, ErbB4 (Homo sapiens, UniProt Q15303); test: Kinase inhibition assay (33P transfer), ErbB4; conditions: read-out: ErbB4-1
T8 construct: Kinases are expressed as either kinase domains or full length constructs; made in house
T8 sequence (Q15303 26-1308, species assumed): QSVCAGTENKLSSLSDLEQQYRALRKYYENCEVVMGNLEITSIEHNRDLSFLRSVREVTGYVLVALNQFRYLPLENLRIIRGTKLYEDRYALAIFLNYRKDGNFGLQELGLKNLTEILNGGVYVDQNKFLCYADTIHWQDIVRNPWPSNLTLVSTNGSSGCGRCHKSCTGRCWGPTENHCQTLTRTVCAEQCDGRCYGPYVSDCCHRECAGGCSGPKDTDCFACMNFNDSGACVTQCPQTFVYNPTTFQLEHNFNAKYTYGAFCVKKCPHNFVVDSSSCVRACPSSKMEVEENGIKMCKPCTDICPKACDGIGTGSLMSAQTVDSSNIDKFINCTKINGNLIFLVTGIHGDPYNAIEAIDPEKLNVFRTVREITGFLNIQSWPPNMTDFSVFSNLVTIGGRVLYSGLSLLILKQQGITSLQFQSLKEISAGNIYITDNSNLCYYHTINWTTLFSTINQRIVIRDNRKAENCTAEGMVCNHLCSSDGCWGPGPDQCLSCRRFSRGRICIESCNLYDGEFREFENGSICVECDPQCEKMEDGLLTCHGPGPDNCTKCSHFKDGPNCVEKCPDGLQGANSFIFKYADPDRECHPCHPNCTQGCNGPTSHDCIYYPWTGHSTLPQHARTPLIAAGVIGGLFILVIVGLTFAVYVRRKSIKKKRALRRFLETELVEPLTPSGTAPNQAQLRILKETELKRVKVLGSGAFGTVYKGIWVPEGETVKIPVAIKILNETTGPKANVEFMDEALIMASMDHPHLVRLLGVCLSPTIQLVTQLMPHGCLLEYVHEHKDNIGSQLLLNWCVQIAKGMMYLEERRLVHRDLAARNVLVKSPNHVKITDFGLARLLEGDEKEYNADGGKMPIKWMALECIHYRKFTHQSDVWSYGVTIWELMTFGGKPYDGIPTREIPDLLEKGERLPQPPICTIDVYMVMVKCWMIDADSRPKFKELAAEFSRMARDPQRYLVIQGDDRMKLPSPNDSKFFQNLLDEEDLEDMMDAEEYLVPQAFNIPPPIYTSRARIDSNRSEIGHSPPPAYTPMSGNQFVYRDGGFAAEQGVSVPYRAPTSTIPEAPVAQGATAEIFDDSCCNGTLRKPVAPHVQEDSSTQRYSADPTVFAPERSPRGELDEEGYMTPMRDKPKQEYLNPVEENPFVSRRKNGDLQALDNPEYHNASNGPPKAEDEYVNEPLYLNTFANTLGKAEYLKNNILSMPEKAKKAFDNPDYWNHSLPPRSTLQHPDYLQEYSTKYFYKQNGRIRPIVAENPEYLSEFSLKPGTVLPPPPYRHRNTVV

T1 sequence (P06239 whole entry, species assumed, the tested form may be a part): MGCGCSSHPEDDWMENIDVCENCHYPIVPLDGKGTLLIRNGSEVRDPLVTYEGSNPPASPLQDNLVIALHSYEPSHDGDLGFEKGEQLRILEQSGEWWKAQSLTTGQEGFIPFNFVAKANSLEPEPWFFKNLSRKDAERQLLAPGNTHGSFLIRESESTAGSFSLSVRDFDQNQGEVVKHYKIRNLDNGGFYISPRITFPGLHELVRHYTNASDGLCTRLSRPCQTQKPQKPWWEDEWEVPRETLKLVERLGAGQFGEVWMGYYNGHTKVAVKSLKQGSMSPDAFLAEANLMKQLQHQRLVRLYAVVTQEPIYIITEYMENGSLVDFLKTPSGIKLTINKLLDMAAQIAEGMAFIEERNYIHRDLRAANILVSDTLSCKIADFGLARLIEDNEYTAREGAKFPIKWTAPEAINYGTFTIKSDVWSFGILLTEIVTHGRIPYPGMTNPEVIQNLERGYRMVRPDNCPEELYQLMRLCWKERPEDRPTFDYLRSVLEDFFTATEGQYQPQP

| IC50 (Lck) | IC50 (Src) | IC50 (Zap-70) | IC50 (EGFR) | IC50 (AKT) | IC50 (IGFR-1) | IC50 (EPHB4) | IC50 (ErbB4) | SMILES |
| --- | --- | --- | --- | --- | --- | --- | --- | --- |
| > 12.2 µM | 9.5 to 12.2 µM | 9.5 to 12.2 µM | 1.09 to 6.51 µM | 9.5 to 12.2 µM | 1.09 to 6.51 µM | 6.51 to 9.5 µM |  | COc1cc(Nc2ncnc(Nc3ccc(N)cc3)n2)cc(OC)c1OC [Compound 92] |
| 1.08 to 6.5 µM | < 1.08 µM | > 12.2 µM | < 1.08 µM | > 12.2 µM | 1.08 to 6.5 µM | < 1.08 µM | 1.08 to 6.5 µM | COc1cc(Nc2ncnc(Nc3cccc(O)c3)n2)cc(OC)c1OC [Compound 78] |
| 1.04 to 6.26 µM | 6.26 to 9.13 µM | > 11.7 µM | 1.04 to 6.26 µM | > 11.7 µM | 1.04 to 6.26 µM | > 11.7 µM |  | COc1ccc(Nc2ncnc(Nc3cc(OC)c(OC)c(OC)c3)n2)cc1 [Compound 89] |
| 1.03 to 6.19 µM |  | > 11.6 µM | 1.03 to 6.19 µM | > 11.6 µM | < 1.03 µM | 1.03 to 6.19 µM | 1.03 to 6.19 µM | COc1cc(Nc2ncnc(Nc3ccc(Cl)cc3)n2)cc(OC)c1OC [Compound 72] |
| 1.01 to 6.05 µM | 1.01 to 6.05 µM | > 11.4 µM | 6.05 to 8.83 µM | > 11.4 µM | < 1.01 µM | > 11.4 µM |  | COc1cc(Nc2ncnc(Nc3ccc(N(C)C)cc3)n2)cc(OC)c1OC [Compound 27] |
| 8.83 to 11.4 µM | 1.01 to 6.05 µM | > 11.4 µM | > 11.4 µM | > 11.4 µM | < 1.01 µM | > 11.4 µM |  | COc1cc(Nc2ncnc(Nc3ccc(C(N)=O)cc3)n2)cc(OC)c1OC [Compound 33] |
| 1.01 to 6.07 µM | < 1.01 µM | 6.07 to 8.85 µM | > 11.4 µM | > 11.4 µM | < 1.01 µM | 8.85 to 11.4 µM |  | COc1cc(Nc2ncnc(Nc3ccc(C(C)C)cc3)n2)cc(OC)c1OC [Compound 66] |
| 0.925 to 5.55 µM |  | > 10.4 µM | 0.925 to 5.55 µM | > 10.4 µM | 0.925 to 5.55 µM | 0.925 to 5.55 µM |  | COc1cc(Nc2ncnc(Nc3ccc(Br)cc3)n2)cc(OC)c1OC [Compound 82] |

More lines, now with the values behind:

| SMILES | IC50 (Lck) | IC50 (Src) | IC50 (Zap-70) | IC50 (EGFR) | IC50 (AKT) | IC50 (IGFR-1) | IC50 (EPHB4) | IC50 (ErbB4) |
| --- | --- | --- | --- | --- | --- | --- | --- | --- |
| COc1cc(Nc2ncnc(Nc3ccc(O)cc3Cl)n2)cc(OC)c1OC [Compound 77] | 0.991 to 5.94 µM | 0.991 to 5.94 µM | > 11.1 µM | 0.991 to 5.94 µM | > 11.1 µM | 0.991 to 5.94 µM | 0.991 to 5.94 µM |  |
| COc1cc(Nc2ncnc(-n3cc(CC(N)=O)c4ccccc43)n2)cc(OC)c1OC [Compound 353] | 8.06 to 10.4 µM | > 10.4 µM | > 10.4 µM | > 10.4 µM | > 10.4 µM | > 10.4 µM | > 10.4 µM | > 10.4 µM |
| COc1cc(Nc2ncnc(Nc3cccc(C)c3)n2)cc(OC)c1OC [Compound 64] | 1.09 to 6.53 µM | < 1.09 µM | 9.53 to 12.2 µM | < 1.09 µM | > 12.2 µM | < 1.09 µM | 1.09 to 6.53 µM | > 12.2 µM |
| COC(=O)c1cccc(Nc2ncnc(Nc3cc(-c4ccco4)n[nH]3)n2)c1 [Compound 344] | 1.06 to 6.36 µM | > 11.9 µM | > 11.9 µM | > 11.9 µM | > 11.9 µM | 1.06 to 6.36 µM | 1.06 to 6.36 µM | > 11.9 µM |
| COc1cc(Nc2ncnc(-n3c(Nc4ccc(F)cc4)nc4ccccc43)n2)cc(OC)c1OC [Compound 387] | 0.821 to 4.92 µM | > 9.23 µM | > 9.23 µM | > 9.23 µM | > 9.23 µM | > 9.23 µM | > 9.23 µM | > 9.23 µM |
| COc1cc(Nc2ncnc(Nc3ccc(N4CCOCC4)cc3)n2)cc(OC)c1OC [Compound 101] | 5.47 to 7.98 µM | 0.912 to 5.47 µM | > 10.3 µM | > 10.3 µM | > 10.3 µM | > 10.3 µM | > 10.3 µM |  |
| COc1cc(Nc2ncnc(Nc3ccccc3C)n2)cc(OC)c1OC [Compound 67] | 1.09 to 6.53 µM | 1.09 to 6.53 µM | > 12.2 µM | 6.53 to 9.53 µM | > 12.2 µM | 9.53 to 12.2 µM | 6.53 to 9.53 µM |  |
| COc1cc(Nc2ncnc(Nc3ccc4c(c3)Cc3ccccc3-4)n2)cc(OC)c1OC [Compound 95] | 0.906 to 5.44 µM | > 10.2 µM | 7.93 to 10.2 µM | > 10.2 µM | > 10.2 µM | 0.906 to 5.44 µM | 7.93 to 10.2 µM |  |
| COc1cc(Nc2ncnc(Nc3ccc4ccccc4c3)n2)cc(OC)c1OC [Compound 96] | 0.991 to 5.95 µM | 5.95 to 8.68 µM | 8.68 to 11.2 µM | 0.991 to 5.95 µM | > 11.2 µM |  | > 11.2 µM | 0.991 to 5.95 µM |
| COc1cc(Nc2ncnc(Nc3cnc4ccccc4c3)n2)cc(OC)c1OC [Compound 99] | 0.989 to 5.93 µM | 0.989 to 5.93 µM | > 11.1 µM | 0.989 to 5.93 µM | > 11.1 µM |  | < 0.989 µM |  |
| COc1cc(Nc2ncnc(Nc3cc(OC)c(OC)c(OC)c3)n2)cc(OC)c1OC [Compound 76] | 0.902 to 5.41 µM | < 0.902 µM | > 10.1 µM | 7.89 to 10.1 µM | > 10.1 µM | 0.902 to 5.41 µM | 0.902 to 5.41 µM |  |
| COc1cc(Nc2ncnc(Nc3cc(C)[nH]n3)n2)cc(OC)c1OC [Compound 88] | 1.12 to 6.72 µM | 1.12 to 6.72 µM | > 12.6 µM | 9.79 to 12.6 µM | > 12.6 µM | 1.12 to 6.72 µM | 1.12 to 6.72 µM |  |
| COc1cccc(-c2ncnc(Nc3cc(OC)c(OC)c(OC)c3)n2)c1 [Compound 232] | 1.09 to 6.51 µM | > 12.2 µM | > 12.2 µM | 6.51 to 9.5 µM | > 12.2 µM | > 12.2 µM | > 12.2 µM |  |
| COc1ccccc1Nc1ncnc(Nc2cc(OC)c(OC)c(OC)c2)n1 [Compound 90] | 1.04 to 6.26 µM | 1.04 to 6.26 µM | > 11.7 µM | 1.04 to 6.26 µM | > 11.7 µM | 1.04 to 6.26 µM | 1.04 to 6.26 µM |  |
| COc1cc(Nc2ncnc(Nc3ccccc3)n2)cc(OC)c1OC [Compound 91] | 1.13 to 6.79 µM | 1.13 to 6.79 µM | > 12.7 µM | 1.13 to 6.79 µM | > 12.7 µM | 1.13 to 6.79 µM | 6.79 to 9.9 µM |  |
| COC(=O)c1cccc(Nc2nc3ccccc3n2-c2ncnc(Nc3cc(OC)c(OC)c(OC)c3)n2)c1 [Compound 383] | 4.55 to 6.63 µM |  | > 8.53 µM | > 8.53 µM | > 8.53 µM | > 8.53 µM | > 8.53 µM |  |
